In ChEMBL document CHEMBL1136472, “3-iodo-4-phenoxypyridinones (IOPY's), a new family of highly potent non-nucleoside inhibitors of HIV-1 reverse transcriptase” (Bioorg Med Chem Lett, 2003):

Key:
[1] = system: MT4; assay: Anti-HIV-1 activity against LAI strain in MT-4 cells.; assay type: functional, cell-based; conditions: Homo sapiens
[2] = Selectivity index is the ratio of 50% cytotoxic concentration to IC50 against LAI strain in MT-4 cells by the MTT method was determined; assay type: functional, MT4
[3] = system: MT4; assay: Anti-HIV-1 activity against LAI strain in MT-4 cells by the MTT method; assay type: functional, cell-based; conditions: Homo sapiens
[4] = system: MT4; assay: Anti-HIV-1 activity against Y181C strain, in MT-4 cells by the MTT method; assay type: functional, cell-based; conditions: Homo sapiens
[5] = system: MT4; assay: Anti-HIV-1 activity against K103N strain in MT-4 cells by the MTT method; assay type: functional, cell-based; conditions: Homo sapiens
[6] = system: MT4; assay: Anti-HIV-1 activity against K103N+Y181C strain was determined in MT-4 cells by the MTT method; assay type: functional, cell-based; conditions: Homo sapiens
[7] = system: MT4; assay: Anti-HIV-1 activity against Y188L strain was determined in MT-4 cells by the MTT method; assay type: functional, cell-based; conditions: Homo sapiens
[8] = system: MT4; assay: Anti-HIV-1 activity against K103N+[…] strain was determined in MT-4 cells by the MTT method; assay type: functional, cell-based; conditions: Homo sapiens
[9] = system: MT4; assay: Anti-HIV-1 activity against […] strain was determined in MT-4 cells by the MTT method; assay type: functional, cell-based; conditions: Homo sapiens

## O=c1[nH]c(=O)n(COCCO)c(Sc2ccccc2)c1I
[1]
  IC50: 3600 nM

## CCc1c(C)nc(O)c(I)c1Oc1cccc(C)c1
[2]
  SI: 19900
[3]
  IC50: 1.6 nM
[4]
  IC50: 51 nM
[5]
  IC50: 32 nM

## CCc1c(C)nc(O)c(N(C)C)c1Oc1cc(C)cc(C)c1
[2]
  SI: 25000
[3]
  IC50: 4 nM
[4]
  IC50: 158 nM
[5]
  IC50: 50 nM

## CCc1c(C)nc(O)c(I)c1Oc1ccccc1
[2]
  SI: 63000
[3]
  IC50: 1.6 nM
[4]
  IC50: 316 nM
[5]
  IC50: 40 nM

## CCc1c(Oc2cc(C)cc(C)c2)cc(=O)[nH]c1C
[2]
  SI: 200
[3]
  IC50: 500 nM

## CCc1c(C)[nH]c(=O)c(I)c1Oc1cc(C)cc(C)c1
[2]
  SI: 9000
[6]
  IC50: 40 nM
[3]
  IC50: 1.3 nM
[7]
  IC50: 45 nM
[4]
  IC50: 20 nM
[5]
  IC50: 3 nM
[8]
  IC50: 20 nM
[9]
  IC50: 6 nM

## CCOCn1c(Cc2cc(C)cc(C)c2)c(C(C)C)c(=O)[nH]c1=O
[2]
  SI: 52000
[3]
  IC50: 1 nM
[4]
  IC50: 180 nM
[5]
  IC50: 40 nM

## CCc1c(C)[nH]c(=O)c(N(C)C)c1Cc1cc(C)cc(C)c1
[2]
  SI: 12500
[6]
  IC50: 800 nM
[3]
  IC50: 8 nM
[7]
  IC50: 300 nM
[4]
  IC50: 100 nM
[5]
  IC50: 32 nM
[9]
  IC50: 50 nM

## CCc1c(C)nc(O)c([N+](=O)[O-])c1Oc1cc(C)cc(C)c1
[2]
  SI: 2500
[3]
  IC50: 4 nM
[4]
  IC50: 158 nM
[5]
  IC50: 100 nM

## CC(C)Nc1cccnc1N1CCN(C(=O)c2cc3cc(NS(C)(=O)=O)ccc3[nH]2)CC1 [DELAVIRDINE]
[6]
  IC50: > 10000 nM
[8]
  IC50: > 10000 nM
[9]
  IC50: 1900 nM

## O=C1Nc2ccc(Cl)cc2[C@@](C#CC2CC2)(C(F)(F)F)O1 [EFAVIRENZ]
[6]
  IC50: 40 nM
[3]
  IC50: 1 nM
[7]
  IC50: 200 nM
[4]
  IC50: 40 nM
[5]
  IC50: 40 nM
[8]
  IC50: > 10000 nM
[9]
  IC50: 2 nM

## CCOCn1c(Cc2ccccc2)c(C(C)C)c(=O)[nH]c1=O [EMIVIRINE]
[2]
  SI: 12500
[3]
  IC50: 8 nM
[4]
  IC50: 100 nM
[5]
  IC50: 32 nM
